Data taken from patent publication US10526345B2, “Compounds as GPR119 agonists” (Mankind Pharma Ltd., priority 2016, dated 2020).

Biological target: T1, hGPR119 (Homo sapiens, UniProt Q8TDV5)
T1 construct: expressed in transfected cells; host or cells: CHO
T1 sequence (Q8TDV5 1-335): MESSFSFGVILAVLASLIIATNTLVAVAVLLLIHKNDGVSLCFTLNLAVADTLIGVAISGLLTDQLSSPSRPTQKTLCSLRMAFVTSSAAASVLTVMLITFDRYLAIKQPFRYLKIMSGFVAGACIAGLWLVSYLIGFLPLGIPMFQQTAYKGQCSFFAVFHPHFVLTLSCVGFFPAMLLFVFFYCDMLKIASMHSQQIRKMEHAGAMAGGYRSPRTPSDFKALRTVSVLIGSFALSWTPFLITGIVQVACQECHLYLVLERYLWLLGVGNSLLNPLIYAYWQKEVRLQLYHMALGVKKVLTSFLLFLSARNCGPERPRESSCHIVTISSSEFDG
Assay: In vitro cyclic AMP assay (Cisbio dynamic 2 HTRF kit) in CHO-hGPR119 cells
Assay type: cell-based
Details: 1 h, cAMP, compound at 1 μM, 60 min, read-out: Induction (% induction at 1 μM)
Procedure: cAMP measurements were done using Cisbio dynamic 2 HTRF kit according to the manufacturer's protocol. Briefly, CHO-hGPR119 cells were plated at a cell density of 5000 cells/well/5 μl into a white small volume 384 well plate. The final concentrations of IBMX and DMSO used were 1 mM and 0.5% respectively. Cells were treated with various concentrations of the test compound for 60 min at room temperature. Cells were lysed by buffer containing Anti-cAMP antibody and d2-cAMP reagents and incubated for 1 hour at room temperature. HTRF was measured at 337 nm excitation and emission wavelengths of 665 nm and 620 nm on a microplate reader (Flurostar, BMG Labtech). Graphpad prism software was utilized for EC50 determinations.

Row | SMILES | activation at 1 µM [%]
1 | CC(C)c1noc(N2CCC(COc3nc4ccc(-c5ccncc5F)nc4s3)CC2)n1 [Compound 1084, 5-(4-(((5-(3-fluoropyridin-4-yl)thiazolo[5,4-b]pyridin-2-yl)oxy)methyl)piperidin-1-yl)-3-isopropyl-1,2,4-oxadiazole] | 12
2 | CC(C)c1noc(N2CCC(OC(C)c3nc4ccc(-c5ccc(S(C)(=O)=O)cc5)nc4s3)CC2)n1 (stereo not shown) [Compound 1130, 3-isopropyl-5-(4-(1-(5-(4-(methylsulfonyl)phenyl)thiazolo[5,4-b]pyridin-2-yl)ethoxy)piperidin-1-yl)-1,2,4-oxadiazole] | 5
3 | CCc1cnc(N2CCC([C@H](C)Oc3nc4ccc(-c5ccc(C(F)(F)F)nc5)nc4s3)CC2)nc1 [Compound 1154, (S)-2-(1-(1-(5-ethylpyrimidin-2-yl)piperidin-4-yl)ethoxy)-5-(6-(trifluoromethyl)pyridin-3-yl)thiazolo[5,4-b]pyridine] | 65
4 | CC(Oc1nc2ccc(-c3ccc(S(C)(=O)=O)cc3)nc2s1)C1CCN(S(=O)(=O)C2CC2)CC1 (stereo not shown) [Compound 1109, 2-(1-(1-(cyclopropylsulfonyl)piperidin-4-yl)ethoxy)-5-(4-(methylsulfonyl)phenyl)thiazolo[5,4-b]pyridine] | 0
5 | CC(C)c1noc(N2CCC(C(C)Oc3nc4ccc(-c5cc[n+]([O-])cc5)nc4s3)CC2)n1 (stereo not shown) [Compound 1098, 4-(2-(1-(1-(3-isopropyl-1,2,4-oxadiazol-5-yl)piperidin-4-yl)ethoxy)thiazolo[5,4-b]pyridin-5-yl)pyridine 1-oxide] | 48
6 | CC(C)c1noc(N2CCC(C(Oc3nc4ccc(-c5ccnc(F)c5)nc4s3)C(F)(F)F)CC2)n1 (stereo not shown) [Compound 1103, 3-isopropyl-5-(4-(2,2,2-trifluoro-1-((5-(2-fluoropyridin-4-yl)thiazolo[5,4-b]pyridin-2-yl)oxy)ethyl)piperidin-1-yl)-1,2,4-oxadiazole] | 63
7 | CC(C)c1noc(N2CCC(Oc3nc4ccc(-c5ccc(S(C)(=O)=O)cc5)nc4s3)CC2)n1 [Compound 1007, 3-isopropyl-5-(4-((5-(4-(methylsulfonyl)phenyl)thiazolo[5,4-b]pyridin-2-yl)oxy)piperidin-1-yl)-1,2,4-oxadiazole] | 39
8 | CC(C)c1noc(N2CC[C@@H](COc3nc4ccc(-c5ccc(S(C)(=O)=O)cc5)nc4s3)[C@@H](F)C2)n1 [Compound 1128, 5-((3R,4S)-3-fluoro-4-(((5-(4-(methylsulfonyl)phenyl)thiazolo[5,4-b]pyridin-2-yl)oxy)methyl)piperidin-1-yl)-3-isopropyl-1,2,4-oxadiazole] | 10
9 | C[C@H](Oc1nc2ccc(-c3ccc(S(C)(=O)=O)nc3)nc2s1)C1CCN(c2ncc(C(F)(F)F)cn2)CC1 [Compound 1166, 2-((S)-1-(1-(5-(trifluoromethyl)pyrimidin-2-yl)piperidin-4-yl)ethoxy)-5-(6-(methylsulfonyl)pyridin-3-yl)thiazolo[5,4-b]pyridine] | 70
10 | CS(=O)(=O)c1ccc(-c2ccc3nc(C4=CCN(CCO)CC4)sc3n2)cc1 [Compound 1015, 2-(4-(5-(4-(methylsulfonyl)phenyl)thiazolo[5,4-b]pyridin-2-yl)-5,6-dihydropyridin-1(2H)-yl)ethanol] | 2
11 | CCCc1cnc(N2CCC(C(C)Oc3nc4ccc(-c5ccncc5)nc4s3)CC2)nc1 (stereo not shown) [Compound 1150, 2-(1-(1-(5-propylpyrimidin-2-yl)piperidin-4-yl)ethoxy)-5-(pyridin-4-yl)thiazolo[5,4-b]pyridine] | 67
12 | CC(C)c1noc(N2CCC(COc3nc4ccc(-c5ccc(S(C)(=O)=O)cc5)nc4s3)CC2)n1 [Compound 1006, 3-isopropyl-5-(4-(((5-(4-(methylsulfonyl)phenyl)thiazolo[5,4-b]pyridin-2-yl)oxy)methyl)piperidin-1-yl)-1,2,4-oxadiazole] | 31
13 | CC(C)c1noc(N2CCC(Oc3nc4ccc(Oc5ccc(S(C)(=O)=O)cc5)nc4s3)CC2)n1 [Compound 1005, 3-isopropyl-5-(4-((5-(4-(methylsulfonyl)phenoxy)thiazolo[5,4-b]pyridin-2-yl)oxy)piperidin-1-yl)-1,2,4-oxadiazole] | 6

Continued, values first:

Row | activation at 1 µM [%] | SMILES
14 | 53 | COCCNC(=O)c1ccc(-c2ccc3nc(N4CCC(c5nc(C(C)C)no5)CC4)sc3n2)cc1 [Compound 1024, 4-(2-(4-(3-isopropyl-1,2,4-oxadiazol-5-yl)piperidin-1-yl)thiazolo[5,4-b]pyridin-5-yl)-N-(2-methoxyethyl)benzamide]
15 | 20 | Cc1cc2nc(OC(C)C3CCN(c4nc(C(C)C)no4)CC3)sc2nc1-c1ccc(S(C)(=O)=O)cc1 (stereo not shown) [Compound 1039, 3-isopropyl-5-(4-(1-((6-methyl-5-(4-(methylsulfonyl)phenyl)thiazolo[5,4-b]pyridin-2-yl)oxy)ethyl)piperidin-1-yl)-1,2,4-oxadiazole]
16 | 24 | CC(C)c1noc(N2CCC(C(C)Oc3nc4ccc(-c5ccc(C(=O)N6CCOCC6)cc5)nc4s3)CC2)n1 (stereo not shown) [Compound 1051, (4-(2-(1-(1-(3-isopropyl-1,2,4-oxadiazol-5-yl)piperidin-4-yl)ethoxy)thiazolo[5,4-b]pyridin-5-yl)phenyl)(morpholino)methanone]
17 | 2 | CC(C)c1noc(N2CC=C(CCOc3nc4ccc(-c5ccc(S(C)(=O)=O)cc5)nc4s3)CC2)n1 [Compound 1035, 3-isopropyl-5-(4-(2-((5-(4-(methylsulfonyl)phenyl)thiazolo[5,4-b]pyridin-2-yl)oxy)ethyl)-5,6-dihydropyridin-1(2H)-yl)-1,2,4-oxadiazole]
18 | 13 | CC(C)c1noc(C2CCC(C(C)Oc3nc4ccc(-c5ccc(S(C)(=O)=O)cc5)nc4s3)CC2)n1 (stereo not shown) [Compound 1105, 3-isopropyl-5-(4-(1-((5-(4-(methylsulfonyl)phenyl)thiazolo[5,4-b]pyridin-2-yl)oxy)ethyl)cyclohexyl)-1,2,4-oxadiazole]
19 | 30 | CC(C)c1noc(N2CCC(C(C)Oc3nc4ccc(-c5cnoc5)nc4s3)CC2)n1 (stereo not shown) [Compound 1122, 3-isopropyl-5-(4-(1-((5-(isoxazol-4-yl)thiazolo[5,4-b]pyridin-2-yl)oxy)ethyl)piperidin-1-yl)-1,2,4-oxadiazole]
20 | 76 | CCc1cnc(N2CCC(C(C)Oc3nc4ccc(-c5ccc(S(C)(=O)=O)cc5)nc4s3)CC2)nc1 (stereo not shown) [Compound 1055, 2-(1-(1-(5-ethylpyrimidin-2-yl)piperidin-4-yl)ethoxy)-5-(4-(methylsulfonyl)phenyl)thiazolo[5,4-b]pyridine]
21 | 40 | CC(C)c1noc(C2CCN(c3nc4ccc(-c5ccc(S(C)(=O)=O)nc5)nc4s3)CC2)n1 [Compound 1080, 3-isopropyl-5-(1-(5-(6-(methylsulfonyl)pyridin-3-yl)thiazolo[5,4-b]pyridin-2-yl)piperidin-4-yl)-1,2,4-oxadiazole]
22 | 0 | CC(C)OC(=O)N1CCC(N(C)c2nc3ccc(-c4ccc(S(C)(=O)=O)cc4)nc3s2)CC1 [Compound 1016, isopropyl 4-(methyl(5-(4-(methylsulfonyl)phenyl)thiazolo[5,4-b]pyridin-2-yl)amino)piperidine-1-carboxylate]
23 | 70 | CC(Oc1nc2ccc(-c3ccc(S(C)(=O)=O)cc3)nc2s1)C1CCN(c2cnc(Cl)cn2)CC1 (stereo not shown) [Compound 1148, 2-(1-(1-(5-chloropyrazin-2-yl)piperidin-4-yl)ethoxy)-5-(4-(methylsulfonyl)phenyl)thiazolo[5,4-b]pyridine]
24 | 80 | CC(C)c1noc(N2CCC(C(C)Oc3nc4ccc(-c5ccc(S(C)(=O)=O)nc5)nc4s3)CC2)n1 (stereo not shown) [Compound 1069, 3-isopropyl-5-(4-(1-((5-(6-(methylsulfonyl)pyridin-3-yl)thiazolo[5,4-b]pyridin-2-yl)oxy)ethyl)piperidin-1-yl)-1,2,4-oxadiazole]
25 | 85 | CCCc1cnc(N2CCC([C@H](C)Oc3nc4ccc(-c5ccncc5)nc4s3)CC2)nc1 [Compound 1153, 2-((S)-1-(1-(5-propylpyrimidin-2-yl)piperidin-4-yl)ethoxy)-5-(pyridin-4-yl)thiazolo[5,4-b]pyridine]
26 | 17 | CNS(=O)(=O)c1ccc(-c2ccc3nc(N4CCC(c5nc(C(C)C)no5)CC4)sc3n2)cc1 [Compound 1072, 4-(2-(4-(3-isopropyl-1,2,4-oxadiazol-5-yl)piperidin-1-yl)thiazolo[5,4-b]pyridin-5-yl)-N-methylbenzenesulfonamide]
27 | 54 | CCc1noc(N2CCC(C(C)Oc3nc4ccc(-c5ccc(S(C)(=O)=O)nc5)nc4s3)CC2)n1 (stereo not shown) [Compound 1156, 2-(1-(1-(3-ethyl-1,2,4-oxadiazol-5-yl)piperidin-4-yl)ethoxy)-5-(6-(methylsulfonyl)pyridin-3-yl)thiazolo[5,4-b]pyridine]

Same assay, conditions: cAMP

Row | EC50 [nM] | SMILES
28 | 25 to 50 | CCc1cnc(N2CCC([C@H](C)Oc3nc4ccc(-c5ccc(C(F)(F)F)nc5)nc4s3)CC2)nc1 [Compound 1154, (S)-2-(1-(1-(5-ethylpyrimidin-2-yl)piperidin-4-yl)ethoxy)-5-(6-(trifluoromethyl)pyridin-3-yl)thiazolo[5,4-b]pyridine]
29 | 100 to 500 | CCCc1cnc(N2CCC([C@H](C)Oc3nc4ccc(-c5ccncc5)nc4s3)CC2)nc1 [Compound 1153, 2-((S)-1-(1-(5-propylpyrimidin-2-yl)piperidin-4-yl)ethoxy)-5-(pyridin-4-yl)thiazolo[5,4-b]pyridine]
30 | 50 to 100 | CC(C)c1noc(N2CCC([C@H](C)Oc3nc4ccc(-c5ccncc5F)nc4s3)CC2)n1 [Compound 1096, (S)-5-(4-(1-((5-(3-fluoropyridin-4-yl)thiazolo[5,4-b]pyridin-2-yl)oxy)ethyl)piperidin-1-yl)-3-isopropyl-1,2,4-oxadiazole]

Same assay, conditions: cAMP, compound at 1 μM, 60 min

Row | Induction (% induction at 1 μM) [%] | SMILES
31 | 66 | CC(C)c1noc(N2CCC([C@H](C)Oc3nc4ccc(-c5ccncc5F)nc4s3)CC2)n1 [Compound 1096, (S)-5-(4-(1-((5-(3-fluoropyridin-4-yl)thiazolo[5,4-b]pyridin-2-yl)oxy)ethyl)piperidin-1-yl)-3-isopropyl-1,2,4-oxadiazole]
